# Several values for one entry are separate records, joined by “and”; a condition that tells them apart may be missing. Identical values can stand only once. Like-named read-outs stand apart in the source and are kept apart here. Marks after values point to notes of the source that are not given here.
# Key:
# [1] = biological target: T1, PfFabZ (β-hydroxyacyl-ACP dehydratase) (Plasmodium falciparum, UniProt Q965D7); assay: biochemical
# T1 construct: made in house
# T1 sequence (Q965D7 19-230): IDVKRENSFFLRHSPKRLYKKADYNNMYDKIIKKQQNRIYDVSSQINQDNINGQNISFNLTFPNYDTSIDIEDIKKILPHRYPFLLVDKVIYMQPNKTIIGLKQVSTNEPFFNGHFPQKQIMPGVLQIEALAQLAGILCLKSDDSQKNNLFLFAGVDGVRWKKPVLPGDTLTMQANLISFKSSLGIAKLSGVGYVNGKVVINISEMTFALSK
# Procedure: Expression and purification of the PfFab enzymes as well as the assays were performed as described [29]. […] Measurements were carried out in Nundron Surface sterile 96-well plates, using 20 mM Hepes and 150 mM NaCl at pH 7.4. Compounds were dissolved in DMSO (maximum final concentration 1%). A dilution series of 50 μg/mL to 0.0005 μg/mL of dissolved compounds was measured. For PfFabI, 400 μM NADH (cofactor, Sigma) was added to 2 μg enzyme and reaction started by addition of 300 μM crotonyl-CoA (substrate, Sigma). The change of absorbance of the mixture was recorded spectrophotometrically at 340 nm for 40 minutes. Triclosan was used as a positive control and was analyzed the same way. For PfFabG 400 μM NADPH (cofactor, Fluka) was added to 0.5 μg enzyme and reaction started by addition of 300 μM acetoacetyl-CoA (substrate, Sigma). The change of absorbance of the mixture was recorded spectrophotometrically at 340 nm for 20 minutes. (-)-Epigallocatechin gallate (Sigma) was used as a positive control and was analyzed the same way. For PfFabZ, 600 μM crotonoyl-CoA (substrate, Sigma) was added to 0.5 μg enzyme. The change of absorbance of the mixture was recorded spectrophotometrically at 260 nm for 20 minutes. (−)-Epigallocatechin gallate was used as a positive control. IC50 values were estimated from graphically plotted dose-response curves. […]
# [2] = test system: T. cruzi Tulahuen strain C2C4 intracellular amastigotes in L6 rat skeletal myoblasts; assay: Activity against Trypanosoma cruzi (beta-galactosidase/CPRG assay in L6 cells); assay type: cell-based; conditions: for IC50: Trypanosoma cruzi, TULAHUEN, L6, 96 h; for IC50 T. cruzi: 96 h
# Procedure: Then the substrate CPRG/Nonidet (50 μl) was added to all wells. A color reaction developed within 2–6 h and could be read photometrically at 540 nm. Data were transferred into the graphic programme Softmax Pro (Molecular Devices), which calculated IC50 values. […] Benznidazole was the standard drug used.
# [3] = test system: P. falciparum K1 strain erythrocytic stages; assay: Activity against Plasmodium falciparum ([3H]-hypoxanthine incorporation); assay type: cell-based; conditions: for IC50: Plasmodium falciparum; for Selectivity index (CC50 L6 / IC50 parasite) for P. falciparum: CC50 L6 cells divided by IC50 P. falciparum; for IC50 P. falciparum: K1 strain
# Procedure: (§1) The toxicity on mammalian cells was assessed against L6 cells, a primary cell line derived from rat skeletal myoblasts.
# The radioactivity was counted using a Betaplate^TM liquid scintillation counter (Wallac, Zurich, Switzerland). […] IC50 values were calculated from graphically plotted dose-response curves.
# [4] = test system: T. b. rhodesiense STIB 900 bloodstream forms; design: method as in PMID 17765547; conditions: earlier study; cited from earlier work
# [5] = test system: T. cruzi Tulahuen strain C2C4 intracellular amastigotes in L6 rat skeletal myoblasts; design: method as in PMID 17765547; conditions: earlier study; cited from earlier work
# [6] = test system: L. donovani strain MHOM/ET/67/L82 axenic amastigotes; design: method as in PMID 17765547; conditions: earlier study; cited from earlier work
# [7] = test system: P. falciparum K1 strain erythrocytic stages; design: method as in PMID 17765547; conditions: earlier study; cited from earlier work
# [8] = test system: L6 cells; design: method as in PMID 17765547; conditions: earlier study; cited from earlier work
# [9] = test system: PfFabI (enoyl-ACP reductase); design: method as in PMID 17765547; conditions: previous project; cited from earlier work
# [10] = test system: T. b. rhodesiense STIB 900 bloodstream forms; assay: Activity against Trypanosoma brucei rhodesiense (resazurin assay); assay type: cell-based; conditions: for IC50: Trypanosoma brucei, read-out: IC50 T. b. rhodesiense; for IC50 / IC50 T. b. rhodesiense: 72 h; for Selectivity index (CC50 L6 / IC50 parasite) for T. brucei rhodesiense: CC50 L6 cells divided by IC50 T. b. rhodesiense
# Procedure: as §1
# STIB 900 strain of T. b. rhodesiense and the standard drug melarsoprol were used for the assay. […] Data were analyzed using the microplate reader software Softmax Pro (Molecular Devices Cooperation, Sunnyvale, CA, USA).
# [11] = test system: L. donovani strain MHOM/ET/67/L82 axenic amastigotes; assay: Activity against Leishmania donovani (axenic amastigotes, resazurin); assay type: cell-based; conditions: for IC50: Leishmania donovani, read-out: IC50 L. donovani; for IC50 / IC50 L. donovani: 72 h; for Selectivity index (CC50 L6 / IC50 parasite) for L. donovani: CC50 L6 cells divided by IC50 L. donovani
# Procedure: as §1
# Amastigotes of L. donovani strain MHOM/ET/67/L82 were grown in axenic culture at 37 °C in SM medium at pH 5.4 supplemented with 10% heat-inactivated fetal bovine serum under an atmosphere of 5% CO2 in air. One hundred μL of culture medium with 10^5 amastigotes from axenic culture with or without a serial drug dilution were seeded in 96-well microtiter plates. […] Data were analyzed using the software Softmax Pro. Decrease of fluorescence (=inhibition) was expressed as percentage of the fluorescence of control cultures and plotted against the drug concentrations. From the sigmoidal inhibition curves the IC50 values were calculated. […] Miltefosine was used as a reference drug.
# [12] = Cytotoxicity against L6-cells (resazurin); assay type: cell-based, rat; conditions: rat
# Procedure: as §1
# (§2) Assays were performed in 96-well microtiter plates, each well containing 100 μL of RPMI 1640 medium supplemented with 1% L-glutamine (200 mM) and 10% fetal bovine serum, and 4 × 10^4 L-6 cells (a primary cell line derived from rat skeletal myoblasts). Serial drug dilutions of seven 3-fold dilution steps covering a range from 90 to 0.123 μg/mL were prepared. After 72 h of incubation the plates were inspected under an inverted microscope to assure growth of the controls and sterile conditions. 10 μl of a resazurin solution (12.5 mg resazurin dissolved in 100 mL distilled water) was then added to each well and the plates incubated for another 2 h. Then the plates were read with a Spectramax Gemini XS microplate fluorometer using an excitation wavelength of 536 nm and an emission wavelength of 588 nm. Data were analyzed using the microplate reader software Softmax Pro. Each CC50 value obtained is the mean of at least two separate experiments performed in duplicate. Podophyllotoxin was the standard drug used.
# [13] = test system: L6 cells; assay: Cytotoxicity against L6-cells (resazurin); assay type: cell-based, rat; conditions: 72 h
# Procedure: as §1, §2
# [14] = K1, read-out: IC50 P. falciparum
# [15] = K1, K1 strain, erythrocytic stage, read-out: IC50 P. falciparum
# [16] = 72 h, read-out: CC50 Cytotoxicity L6 cells
Molecule,IC50 [2] [µg/mL],IC50 ([10]; STIB 900 bloodstream forms) [µg/mL],IC50 ([11]; axenic amastigotes) [µg/mL],"IC50 [3, 15] [µg/mL]",CC50 at 72 h [12] [µg/mL],other results
"O=C(O[C@@H]1Cc2c(O)cc(O)cc2O[C@@H]1c1cc(O)c(O)c(O)c1)c1cc(O)c(O)c(O)c1 [(−)-epigallocatechin gallate, reference compound]",–,–,–,–,–,IC50 [1]: 698 nM
"O=C(Cn1ccnc1[N+](=O)[O-])NCc1ccccc1 [Benznidazole, reference compound]",0.312,–,–,–,–,–
"CCN(CC)CCCC(C)Nc1ccnc2cc(Cl)ccc12 (stereo not drawn) [Chloroquine, reference compound]",–,–,–,–,–,"IC50 [3, 14]: 0.065 µg/mL"
"Nc1ncc(/C=C/CNC(=O)c2cc(Br)c(Br)[nH]2)[nH]1 [Compound 1a, oroidin]",–,–,–,–,–,IC50 T. b. rhodesiense [4]: 17.30 ^1 μg/mL; IC50 T. cruzi [5]: >30 ^1 μg/mL; IC50 L. donovani [6]: >30 ^1 μg/mL; IC50 P. falciparum [7]: 3.90 ^1 μg/mL; CC50 Cytotoxicity L6 cells [8]: 88.60 ^1 μg/mL; PfFabI inhibition (in words) [9]: potent PfFAbI inhibitors
"Nc1ncc(/C=C/CNC(=O)c2cc(Br)c(Br)[nH]2)[nH]1 [Compound 1b, oroidin]",–,–,–,–,–,IC50 T. b. rhodesiense [4]: 12.20 ^1 μg/mL; IC50 T. cruzi [5]: >30 ^1 μg/mL; IC50 L. donovani [6]: 15.40 ^1 μg/mL; IC50 P. falciparum [7]: 7.90 ^1 μg/mL; CC50 Cytotoxicity L6 cells [8]: 76.40 ^1 μg/mL; PfFabI inhibition (in words) [9]: potent PfFAbI inhibitors
"Nc1ncc(/C=C/CNC(=O)c2cc(Br)c[nH]2)[nH]1 [Compound 2, hymenidin]",–,77.6,29.9,12.5,75.7,–
"NC1=NC(=O)/C(=C/CCNC(=O)c2cc(Br)c[nH]2)N1 [Compound 3, dispacamide B]",> 90,40.1,> 90,1.09,> 90,IC50 L. donovani ([11]; axenic amastigotes): completely inactive; Selectivity index (CC50 L6 / IC50 parasite) for P. falciparum [3]: > 67.2; IC50 P. falciparum ([3]; erythrocytic stage): 1.34 µg/mL; CC50 Cytotoxicity L6 cells [13]: devoid of any cytotoxicity
"NC1=NC(=O)/C(=C/C(O)CNC(=O)c2cc(Br)c[nH]2)N1 (stereo not drawn) [Compound 4, dispacamide D]",> 90,68.2,53.8,> 20,> 90,–
"Nc1ncc(C2=CCNC(=O)c3[nH]c(Br)c(Br)c32)[nH]1 [Compound 5, stevensine]",> 90,25.3,75.9,4.88,> 90,–
"O=C1CCNC(=O)c2[nH]c(Br)cc21 [Compound 7, bromoaldisin]",> 90,61.5,> 90,> 20,> 90,–
"O=C(O)CC1CNC(=O)c2cc(Br)c(Br)n21 (stereo not drawn) [Compound 8, longamide B]",> 33,1.53,3.85,7.46,9.94,Selectivity index (CC50 L6 / IC50 parasite) for T. brucei rhodesiense [10]: 6.5; IC50 T. cruzi [2]: 33.03 µg/mL; Selectivity index (CC50 L6 / IC50 parasite) for L. donovani [11]: 2.6
"O=C1NC[C@@H](O)n2c1cc(Br)c2Br [Compound 9, longamide A]",> 90,> 90,> 90,> 20,> 90,–
"Nc1nc([C@H]2[C@H](CNC(=O)c3cc(Br)c[nH]3)[C@@H](CNC(=O)c3cc(Br)c[nH]3)[C@@H]2c2c[nH]c(N)n2)c[nH]1 [Compound 10, sceptrin]",> 33,9.71,51.6,11.1,> 90,IC50 T. cruzi [2]: 60.08 µg/mL
"NCC1C2CN3C(=O)c4cc(Br)c(Br)n4C4N=C(N)NC43C2C2(N=C(N)NC2O)C1Cl (stereo not drawn) [Compound 11, dibromopalau’amine]",–,0.46,–,–,–,"Selectivity index (CC50 L6 / IC50 parasite) for T. brucei rhodesiense [10]: about 10; Selectivity index (CC50 L6 / IC50 parasite) for L. donovani [11]: 3–4; IC50 [11]: 1.09 µg/mL; Selectivity index (CC50 L6 / IC50 parasite) for P. falciparum [3]: 3–4; IC50 [3, 14]: 1.48 µg/mL; CC50 at 72 h [12, 16]: 4.46 µg/mL"
"N=C(N)NCCCC[C@H](NC(=O)c1cc(Br)c[nH]1)C(=O)O [Compound 12, bromopyrrolohomoarginin]",> 90,67.1,34.5,> 20,62.3,IC50 ([1]; read-out: IC50 PfFabZ (converted)): 777 nM
"C[C@]1(COC(=O)c2cc(Br)c[nH]2)C[C@@H](C(=O)O)N=CN1 [Compound 13, manzacidin A]",> 90,73.8,75.8,> 20,> 90,–
"Nc1nc(N)nc(Nc2ccc([As]3SCC(CO)S3)cc2)n1 (stereo not drawn) [Melarsoprol, reference compound]",–,–,–,–,–,IC50 [10]: 0.004 µg/mL
"CCCCCCCCCCCCCCCCOP(=O)([O-])OCC[N+](C)(C)C [Miltefosine, reference compound]",–,–,0.21,–,–,IC50 L. donovani ([11]; axenic amastigotes): 0.206 ^c μg/mL
"COc1cc([C@@H]2c3cc4c(cc3[C@H](O)[C@H]3COC(=O)[C@H]23)OCO4)cc(OC)c1OC [Podophyllotoxin, reference compound]",–,–,–,–,–,"CC50 at 72 h [12, 16]: 0.005 µg/mL"
agelongine [Compound 14],–,–,–,–,–,IC50 T. b. rhodesiense ([10]; STIB 900 bloodstream forms): 49.96 µg/mL; IC50 T. cruzi [2]: >90 µg/mL; IC50 L. donovani ([11]; axenic amastigotes): 43.22 µg/mL; IC50 P. falciparum ([3]; erythrocytic stage): 11.18 µg/mL; CC50 Cytotoxicity L6 cells [13]: >90 µg/mL
spongiacidin B [Compound 6],–,–,–,–,–,IC50 T. b. rhodesiense ([10]; STIB 900 bloodstream forms): 13.58 µg/mL and 13.48 µg/mL; IC50 L. donovani ([11]; axenic amastigotes): 41.59 µg/mL; IC50 P. falciparum ([3]; erythrocytic stage): 1.34 µg/mL and 1.09 µg/mL; CC50 Cytotoxicity L6 cells [13]: 35.6 µg/mL and 35.61 µg/mL
